Experimental data published in US9119881B2, “Method of synergistically enhancing the therapeutic efficacy and safety of medication through a combination therapy” (priority 2010, dated 2015).
Marks after values point to notes of the source that are not given here.

Test: Dietary ABA and rosiglitazone in obese db/db mice: body and organ weights
Type: in vivo
Details: db/db mice, ABA 100 mg/kg diet, day 60
Procedure: Twelve-fifteen week-old BKS.Cg-+Lepr^db/+Lepr^db/OlaHsd (db/db) mice were housed at the animal facilities at Virginia Polytechnic Institute and State University in a room maintained at 75° F., with a 12:12 h light-dark cycle starting from 6:00 AM. All experimental procedures were approved by the Institutional Animal Care and Use Committee of Virginia Polytechnic Institute and State University and met or exceeded requirements of the Public Health Service, National Institutes of Health and the Animal Welfare Act. […] Louis, Mo.) for 60 days. Mice were weighed and fasting (12 h) blood glucose levels were taken weekly. Blood glucose levels were assessed with an ACCU-CHEK® Glucometer (Roche, Indianapolis, Ind.). […] On day 60 mice were sacrificed by CO2 narcosis with secondary thoracotomy. Abdominal WAT, inguinal subcutaneous WAT, and liver were then excised and weighed. Abdominal and subcutaneous WAT were then digested and fractionated.

In the case of `CC1=CC(=O)CC(C)(C)C1(O)/C=C/C(C)=C\C(=O)O` (racemic) [ABA, abscisic acid], the “Ab. WAT % Body Weight” value (no rosiglitazone) is reported as 4.7 ± 0.68^a % Body Weight, the “Sc. WAT % Body Weight” value (no rosiglitazone) is reported as 2.8 ± 0.48 % Body Weight and the “Ab. WAT as percent body weight (in words)” value (Ros^hi) is reported as “significantly and independently reduced”. The “inguinal SCAT weight (in words)” value (Ros^hi) was “little affect”.
